{"source": "the supplement of paper PMC10307832", "assay_in_all_cases": "relative viability (nuclei count vs DMSO), 5 days (fraction); higher = more cells survive", "key": {"NCI-H2009": {"system": "NCI-H2009", "in_short": "(§1)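 Relative viability was taken as the ratio of nuclei in treated wells to nuclei in vehicle wells. Lung cancer cell lines in 1536-well plates received compounds by pin tool one day after seeding, either one drug alone or a fixed anchor-drug dose plus five library-drug doses (not always all listed) in √10 steps. Nuclei were counted on 4× images after 5 days of treatment, and values are medians of duplicate plates.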"}, "SK-LU-1": {"system": "SK-LU-1", "in_short": "as §1"}, "NCI-H1650": {"system": "NCI-H1650", "in_short": "as §1"}, "NCI-H322M": {"system": "NCI-H322M", "in_short": "as §1"}, "NCI-H2087": {"system": "NCI-H2087", "in_short": "as §1"}, "NCI-H2126": {"system": "NCI-H2126", "in_short": "as §1"}, "ChaGo-K-1": {"system": "ChaGo-K-1", "in_short": "as §1"}, "BEN": {"system": "BEN", "in_short": "as §1"}, "A-427": {"system": "A-427", "in_short": "as §1"}, "NCI-H441": {"system": "NCI-H441", "in_short": "as §1"}, "EKVX": {"system": "EKVX", "in_short": "as §1"}, "NCI-H1755": {"system": "NCI-H1755", "in_short": "as §1"}}, "data": [{"smiles": "C=C1C(=O)O[C@@H](CCCCCCCC)[C@@H]1C(=O)O", "note": "[C-75] + CC(=O)c1c(C)c2cnc(Nc3ccc(N4CCNCC4)cn3)nc2n(C2CCCC2)c1=O [Palbociclib] (partner 0.5 µM)", "values": [{"measurement": "relative viability", "setting": "NCI-H2009; first compound 0.08 µM", "result": 0.24}, {"measurement": "relative viability", "setting": "NCI-H2009; first compound 0.253 µM", "result": 0.192}, {"measurement": "relative viability", "setting": "NCI-H2009; first compound 0.8 µM", "result": 0.19}, {"measurement": "relative viability", "setting": "NCI-H2009; first compound 2.53 µM", "result": 0.171}, {"measurement": "relative viability", "setting": "NCI-H2009; first compound 8 µM", "result": 0.216}, {"measurement": "relative viability", "setting": "SK-LU-1; first compound 0.08 µM", "result": 0.384}, {"measurement": "relative viability", "setting": "SK-LU-1; first compound 0.253 µM", "result": 0.43}, {"measurement": "relative viability", "setting": "SK-LU-1; first compound 0.8 µM", "result": 0.429}, {"measurement": "relative viability", "setting": "SK-LU-1; first compound 2.53 µM", "result": 0.387}, {"measurement": "relative viability", "setting": "SK-LU-1; first compound 8 µM", "result": 0.384}, {"measurement": "relative viability", "setting": "NCI-H1650; first compound 0.08 µM", "result": 0.431}, {"measurement": "relative viability", "setting": "NCI-H1650; first compound 0.253 µM", "result": 0.414}, {"measurement": "relative viability", "setting": "NCI-H1650; first compound 0.8 µM", "result": 0.342}, {"measurement": "relative viability", "setting": "NCI-H1650; first compound 8 µM", "result": 0.38}, {"measurement": "relative viability", "setting": "NCI-H322M; first compound 0.08 µM", "result": 0.481}, {"measurement": "relative viability", "setting": "NCI-H322M; first compound 0.253 µM", "result": 0.525}, {"measurement": "relative viability", "setting": "NCI-H322M; first compound 0.8 µM", "result": 0.479}, {"measurement": "relative viability", "setting": "NCI-H322M; first compound 8 µM", "result": 0.481}, {"measurement": "relative viability", "setting": "NCI-H2087; first compound 0.08 µM", "result": 0.239}, {"measurement": "relative viability", "setting": "NCI-H2087; first compound 0.253 µM", "result": 0.232}, {"measurement": "relative viability", "setting": "NCI-H2087; first compound 0.8 µM", "result": 0.239}, {"measurement": "relative viability", "setting": "NCI-H2087; first compound 2.53 µM", "result": 0.209}, {"measurement": "relative viability", "setting": "NCI-H2087; first compound 8 µM", "result": 0.217}, {"measurement": "relative viability", "setting": "NCI-H2126; first compound 0.08 µM", "result": 0.348}, {"measurement": "relative viability", "setting": "NCI-H2126; first compound 0.253 µM", "result": 0.35}, {"measurement": "relative viability", "setting": "NCI-H2126; first compound 0.8 µM", "result": 0.335}, {"measurement": "relative viability", "setting": "NCI-H2126; first compound 2.53 µM", "result": 0.349}, {"measurement": "relative viability", "setting": "NCI-H2126; first compound 8 µM", "result": 0.339}, {"measurement": "relative viability", "setting": "ChaGo-K-1; first compound 0.08 µM", "result": 0.87}, {"measurement": "relative viability", "setting": "ChaGo-K-1; first compound 0.253 µM", "result": 0.894}, {"measurement": "relative viability", "setting": "ChaGo-K-1; first compound 0.8 µM", "result": 0.888}, {"measurement": "relative viability", "setting": "ChaGo-K-1; first compound 2.53 µM", "result": 0.519}, {"measurement": "relative viability", "setting": "ChaGo-K-1; first compound 8 µM", "result": 0.915}, {"measurement": "relative viability", "setting": "BEN; first compound 0.08 µM", "result": 0.509}, {"measurement": "relative viability", "setting": "BEN; first compound 0.253 µM", "result": 0.483}, {"measurement": "relative viability", "setting": "BEN; first compound 0.8 µM", "result": 0.46}, {"measurement": "relative viability", "setting": "BEN; first compound 2.53 µM", "result": 0.375}, {"measurement": "relative viability", "setting": "BEN; first compound 8 µM", "result": 0.452}, {"measurement": "relative viability", "setting": "A-427; first compound 0.08 µM", "result": 0.531}, {"measurement": "relative viability", "setting": "A-427; first compound 0.253 µM", "result": 0.468}, {"measurement": "relative viability", "setting": "A-427; first compound 0.8 µM", "result": 0.49}, {"measurement": "relative viability", "setting": "A-427; first compound 2.53 µM", "result": 0.464}, {"measurement": "relative viability", "setting": "A-427; first compound 8 µM", "result": 0.523}, {"measurement": "relative viability", "setting": "NCI-H441; first compound 0.08 µM", "result": 0.255}, {"measurement": "relative viability", "setting": "NCI-H441; first compound 0.253 µM", "result": 0.255}, {"measurement": "relative viability", "setting": "NCI-H441; first compound 0.8 µM", "result": 0.205}, {"measurement": "relative viability", "setting": "NCI-H441; first compound 8 µM", "result": 0.184}, {"measurement": "relative viability", "setting": "EKVX; first compound 0.08 µM", "result": 0.4}, {"measurement": "relative viability", "setting": "EKVX; first compound 0.253 µM", "result": 0.307}, {"measurement": "relative viability", "setting": "EKVX; first compound 0.8 µM", "result": 0.383}, {"measurement": "relative viability", "setting": "EKVX; first compound 8 µM", "result": 0.425}, {"measurement": "relative viability", "setting": "NCI-H1755; first compound 0.08 µM", "result": 0.417}, {"measurement": "relative viability", "setting": "NCI-H1755; first compound 0.253 µM", "result": 0.428}, {"measurement": "relative viability", "setting": "NCI-H1755; first compound 0.8 µM", "result": 0.42}, {"measurement": "relative viability", "setting": "NCI-H1755; first compound 2.53 µM", "result": 0.378}, {"measurement": "relative viability", "setting": "NCI-H1755; first compound 8 µM", "result": 0.408}]}]}
